Measured values: patent publication US20200405752A1, “ANTITUMOR AGENT, ANTITUMOR EFFECT ENHANCER, AND ANTITUMOR KIT” (FUJIFILM Corporation, priority 2018, published 2020)

Columns and labels:
[1] = system: human breast cancer cell line HCC1954 (spheroid culture); assay: Cell viability (CellTiter Glo) of HCC1954 in spheroid culture in combination with cisplatin; assay type: cell-based; conditions: for CI / IC50: HCC1954 spheroid culture; for CI: combination with cisplatin; for viability at 0.001 µM / viability at 0.003 µM / viability at 0.01 µM / viability at 0.03 µM / viability at 0.1 µM / viability at 0.3 µM / viability at 1 µM / viability at 3 µM / viability at 10 µM / IC50: Homo sapiens; for viability at 0.001 µM / viability at 0.003 µM / viability at 0.01 µM / viability at 0.03 µM / viability at 0.1 µM / viability at 0.3 µM / viability at 1 µM / viability at 3 µM / viability at 10 µM: 72 h, HCC1954 spheroid, with cisplatin 10 μmol/L, 3 days; for viability at 0.001 µM: test substance 1.0 nM; for viability at 0.003 µM: test substance 3.0 nM; for viability at 0.01 µM: test substance 10.0 nM; for viability at 0.03 µM: test substance 30.0 nM; for viability at 0.1 µM: test substance 100.0 nM; for viability at 0.3 µM: test substance 300.0 nM; for viability at 1 µM: test substance 1000.0 nM; for viability at 3 µM: test substance 3000.0 nM; for viability at 10 µM: test substance 10000.0 nM; for IC50: in combination with cisplatin (10 μmol/L)
From the text: (§1) On the combinational effect of the embodiment of the invention, the results of evaluation using a combination index (CI) which is a quantitative index of the combinational effect are shown. The CI can be calculated by the following equation according to Cancer Research, 2010, Vol. 70, pp. 440 to 446.
(§2) That is, in a case where the drugs to be used in combination are drug 1 and drug 2, the CI at a certain drug concentration is
(§3) CI={(cell viability in case of using drug 1 and drug 2 in combination)/100}/{[(cell viability in case of using drug 1)/100]×[(cell viability in case of using drug 2)/100]}
Evaluation of Antitumor Activity Against Breast Cancer-Derived Cell Line HCC1954 by Combined Use of Cisplatin in Spheroid Culture
(§4) Gemcitabine, cisplatin, and methanesulfonate of Compound A were used as test substances.
(§5) Gemcitabine hydrochloride (manufactured by Plantex Co., Ltd.) dissolved in dimethyl sulfoxide (DMSO) was used as gemcitabine. Cisplatin (Cat. #039-20091, manufactured by Wako Pure Chemical Industries, Ltd.) dissolved in DMSO was used as cisplatin.
(§6) The human breast cancer cell line HCC1954 cells were subcultured in RPMI-1640 medium supplemented with 10% serum (Cat. #10437-028, manufactured by Thermo Fisher Scientific Inc.). During this test, all cell cultures were carried out in a CO2 incubator (set to 37° C. and 5% CO2, saturated with water vapor). The culture was diluted with 10% serum-supplemented medium to a cell density of 5000 cells/well/100 μL, and seeded on an Ultra-Low Attachment 96-well plate (Cat. #7007, manufactured by Corning Incorporated). The cells were cultured for 4 days to form spheroids.
(§7) The methanesulfonate of Compound A and gemcitabine were dissolved in DMSO to prepare 10 mmol/L DMSO solutions thereof. The thus-prepared DMSO solutions were diluted sequentially with DMSO to prepare DMSO solutions having a final treatment concentration of 1000-fold dilution. Cisplatin was dissolved in DMSO to prepare a 100 mmol/L DMSO solution. The thus-prepared DMSO solution of cisplatin was diluted with DMSO to prepare a DMSO solution having a final treatment concentration of 5000-fold dilution. Further, the DMSO solution of cisplatin was diluted with 10% serum-supplemented medium to prepare a cisplatin-containing medium having a final treatment concentration of 10-fold dilution. The DMSO diluted solutions of Compound A and gemcitabine were diluted with the cisplatin-containing medium to prepare treatment liquids having a final treatment concentration of 10-fold dilution. Compound A and gemcitabine were used with a maximum concentration of 10 μmol/L at a common ratio of 1/3 and 9 concentrations in combination with cisplatin (10 μmol/L, 5 μmol/L).
(§8) 10 μL of Compound A or gemcitabine diluted with the cisplatin-containing medium was added to each well. In addition, a group in which only a solvent containing no drug was added to wells in which cells were seeded (positive control), and a group in which only a solvent containing no drug was added to wells containing only a medium (negative control) were provided. All groups were set to n=3 well.
(§9) The cells were cultured for 3 days after the addition of the drug, and the cell viability was evaluated using a CellTiter Glo (registered trademark) Reagent (Cat. #G7570, manufactured by Promega Corporation) with the intracellular ATP level as an index. The concentration that inhibits cell viability by 50% (IC50 value) was calculated using XLFit software Ver.3 (registered trademark, manufactured by CTC Laboratory Systems Corporation).
(§10) The cell viability of each well was determined with the luminescence signal level of the negative control being 0% cell viability and the luminescence signal level of the positive control being 100% cell viability. The average value and standard deviation of the cell viability of each treatment group were calculated to prepare Table 11.

[2] = system: cholangiocarcinoma cell line HuCC-T1 (spheroid culture); assay: Cell viability (CellTiter Glo) of HuCC-T1 in spheroid culture in combination with cisplatin; assay type: cell-based, human; conditions: for viability at 0.001 µM / viability at 0.003 µM / viability at 0.01 µM / viability at 0.03 µM / viability at 0.1 µM / viability at 0.3 µM / viability at 1 µM / viability at 3 µM / viability at 10 µM / IC50: Homo sapiens; for viability at 0.001 µM / viability at 0.003 µM / viability at 0.01 µM / viability at 0.03 µM / viability at 0.1 µM / viability at 0.3 µM / viability at 1 µM / viability at 3 µM / viability at 10 µM: HuCCT-1, 72 h, HuCC-T1 spheroid, with cisplatin 10 μmol/L, 3 days; for viability at 0.001 µM: test substance 1.0 nM; for viability at 0.003 µM: test substance 3.0 nM; for viability at 0.01 µM: test substance 10.0 nM; for viability at 0.03 µM: test substance 30.0 nM; for viability at 0.1 µM: test substance 100.0 nM; for viability at 0.3 µM: test substance 300.0 nM; for viability at 1 µM: test substance 1000.0 nM; for viability at 3 µM: test substance 3000.0 nM; for viability at 10 µM: test substance 10000.0 nM; for IC50: HuCCT-1, in combination with cisplatin (10 μmol/L); for IC50 / CI: HuCC-T1 spheroid culture; for CI: combination with cisplatin
From the text: as §1, §2, §3
Evaluation of Antitumor Activity Against Cholangiocarcinoma Cell Line HuCC-T1 by Combined Use of Cisplatin in Spheroid Culture
as §4, §5
as §6, with “cholangiocarcinoma” for “human breast cancer”, “HuCC-T1” for “HCC1954”
as §7, with “(10” for “(10 μmol/L, 5”
as §8, §9
as §10, with “10.” for “11.”

IC50 [1] [nM]	SMILES	CI [1]	viability at 0.001 µM [1] [%]	viability at 0.003 µM [1] [%]	viability at 0.01 µM [1] [%]	viability at 0.03 µM [1] [%]	viability at 0.1 µM [1] [%]	viability at 0.3 µM [1] [%]	viability at 1 µM [1] [%]	viability at 3 µM [1] [%]	viability at 10 µM [1] [%]	viability at 0.001 µM [2] [%]	viability at 0.003 µM [2] [%]	viability at 0.01 µM [2] [%]	viability at 0.03 µM [2] [%]	viability at 0.1 µM [2] [%]	viability at 0.3 µM [2] [%]	viability at 1 µM [2] [%]	viability at 3 µM [2] [%]	viability at 10 µM [2] [%]	further results
≥ 10000	Nc1ccn([C@@H]2O[C@H](CO)[C@@H](O)C2(F)F)c(=O)n1 [Gemcitabine]	0.60	96	100	101	97	88	73	60	52	50	94	96	94	90	88	84	79	73	50	IC50 [2]: ≥ 10000 nM; CI [2]: 0.79
49.4	Nc1ccn([C@@H]2S[C@H](CO)[C@@H](O)[C@@H]2F)c(=O)n1 [Compound A, 1-(2-deoxy-2-fluoro-4-thio-β-D-arabinofuranosyl)cytosine]	0.03	92	94	75	65	38	15	2	2	2	95	93	87	77	58	41	36	35	34	IC50 [2]: 165 nM; CI [2]: 0.42
